Measured values reported in ChEMBL document CHEMBL1201862, “PubChem BioAssay data set” (2004).
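Step 1: Grow cells in 96-well plates. Step 2: Expose to compound for 48 hours at 5 concentrations. Step 3: Interpolate endpoints linearly; if unreached, use highest concentration. Abbreviation: GI50, concentration required for 50% inhibition of growth.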 Active and inactive are the calls of the source. No stated cut-off is given here; in the data, active = GI50 up to about 1.1 µM and inactive = higher.

Experiments:
Assay in all cases: growth of human tumour cells (NCI), 48 h
PC-3 = system: PC-3
UACC-257 = system: UACC-257
CCRF-CEM = system: CCRF-CEM
MCF7 = system: MCF7
SF-295 = system: SF-295
RXF 393 = system: RXF 393
ACHN = system: ACHN
COLO 205 = system: COLO 205
UO-31 = system: UO-31
NCI-H522 = system: NCI-H522
OVCAR-8 = system: OVCAR-8
RPMI-8226 = system: RPMI-8226
K562 = system: K562
MDA-MB-231 = system: MDA-MB-231
LOX IMVI = system: LOX IMVI
SF-539 = system: SF-539
SW-620 = system: SW-620
HCT-15 = system: HCT-15
Hs-578T = system: Hs-578T
786-0 = system: 786-0
DU-145 = system: DU-145
KM12 = system: KM12
NCI-H460 = system: NCI-H460
UACC-62 = system: UACC-62
EKVX = system: EKVX
A549 = system: A549
SF-268 = system: SF-268
SNB-19 = system: SNB-19
TK-10 = system: TK-10
IGROV-1 = system: IGROV-1
CAKI-1 = system: CAKI-1
SK-MEL-5 = system: SK-MEL-5
SK-MEL-28 = system: SK-MEL-28
HT-29 = system: HT-29
T47D = system: T47D
Malme-3M = system: Malme-3M
SK-OV-3 = system: SK-OV-3
MDA-MB-435 = system: MDA-MB-435
M14 = system: M14
BT-549 = system: BT-549
SN12C = system: SN12C
HOP-92 = system: HOP-92
SNB-75 = system: SNB-75
HL-60 = system: HL-60
OVCAR-5 = system: OVCAR-5
NCI-H226 = system: NCI-H226
OVCAR-3 = system: OVCAR-3
HOP-62 = system: HOP-62
MOLT-4 = system: MOLT-4
MDA-N = system: MDA-N
OVCAR-4 = system: OVCAR-4
SK-MEL-2 = system: SK-MEL-2
NCI/ADR-RES = system: NCI/ADR-RES
U-251 = system: U-251
SR = system: SR
NCI-H23 = system: NCI-H23
HCT-116 = system: HCT-116
A498 = system: A498
HCC 2998 = system: HCC 2998

Measured: GI50

NC(=O)/C(=C\c1ccncc1)c1cccc2ccccc12
inactive: PC-3 > 100 µM | CCRF-CEM > 100 µM | MCF7 > 100 µM | SF-295 > 100 µM | RXF 393 > 100 µM | ACHN > 100 µM | COLO 205 50.5 µM | UO-31 > 100 µM | NCI-H522 > 100 µM | OVCAR-8 > 100 µM | RPMI-8226 > 100 µM | K562 > 100 µM | MDA-MB-231 > 100 µM | LOX IMVI > 100 µM | SF-539 > 100 µM | SW-620 > 100 µM | Hs-578T > 100 µM | 786-0 > 100 µM | DU-145 67.8 µM | KM12 > 100 µM | NCI-H460 45.1 µM | UACC-62 25.3 µM | EKVX > 100 µM | A549 > 100 µM | SF-268 > 100 µM | SNB-19 > 100 µM | TK-10 > 100 µM | IGROV-1 > 100 µM | CAKI-1 > 100 µM | SK-MEL-5 56.9 µM | SK-MEL-28 > 100 µM | HT-29 > 100 µM | T47D > 100 µM | Malme-3M > 100 µM | SK-OV-3 > 100 µM | MDA-MB-435 > 100 µM | M14 55.1 µM | BT-549 > 100 µM | SN12C 34.6 µM | HOP-92 > 100 µM | SNB-75 > 100 µM | HL-60 > 100 µM | OVCAR-5 > 100 µM | NCI-H226 38 µM | OVCAR-3 > 100 µM | HOP-62 > 100 µM | MOLT-4 > 100 µM | MDA-N 43.1 µM | OVCAR-4 > 100 µM | SK-MEL-2 > 100 µM | NCI/ADR-RES > 100 µM | U-251 > 100 µM | SR 53.3 µM | NCI-H23 91.6 µM | HCT-116 > 100 µM
active: UACC-257 < 0.01 µM
> 100 µM: HCT-15

O=[N+]([O-])c1cccc(/C=N/N=c2\ccc3ccccc3[nH]2)c1O
inactive: PC-3 2.7 µM | UACC-257 2.28 µM | MCF7 1.94 µM | RXF 393 2.07 µM | COLO 205 2.21 µM | NCI-H522 1.2 µM | OVCAR-8 2.21 µM | RPMI-8226 1.37 µM | K562 1.35 µM | MDA-MB-231 2.78 µM | LOX IMVI 1.47 µM | SF-539 1.84 µM | Hs-578T 16.2 µM | DU-145 2.26 µM | A498 5.68 µM | KM12 1.87 µM | UACC-62 1.43 µM | EKVX 1.48 µM | A549 2.4 µM | SF-268 1.14 µM | SNB-19 4.92 µM | TK-10 2.51 µM | IGROV-1 2.02 µM | SK-MEL-28 2.79 µM | Malme-3M 1.88 µM | SK-OV-3 1.86 µM | MDA-MB-435 2.45 µM | M14 1.13 µM | BT-549 3.78 µM | SN12C 1.53 µM | HOP-92 7.5 µM | OVCAR-5 3.08 µM | NCI-H226 2.64 µM | MDA-N 5.64 µM | SK-MEL-2 4.4 µM | NCI-H23 1.82 µM
active: CCRF-CEM 0.175 µM | SF-295 1.01 µM | ACHN 0.478 µM | UO-31 0.335 µM | SW-620 0.632 µM | 786-0 0.658 µM | NCI-H460 0.448 µM | CAKI-1 0.665 µM | SK-MEL-5 0.984 µM | HT-29 0.632 µM | T47D 0.807 µM | HL-60 0.619 µM | OVCAR-3 0.185 µM | HOP-62 0.815 µM | MOLT-4 0.83 µM | OVCAR-4 1.07 µM | NCI/ADR-RES 0.151 µM | U-251 1.11 µM | SR 0.466 µM | HCT-116 0.526 µM
0.146 µM: HCT-15

Cc1cccc2c(N)c3cccc(C(=O)NCC[N+](C)(C)Cc4sc(N5CCOCC5)nc4[N+](=O)[O-])c3nc12
1.08 µM: HCT-15
inactive: PC-3 3.37 µM | UACC-257 6.9 µM | RXF 393 4.36 µM | COLO 205 1.2 µM | UO-31 4.17 µM | NCI-H522 1.12 µM | OVCAR-8 2.12 µM | RPMI-8226 3.13 µM | K562 1.16 µM | MDA-MB-231 2.28 µM | DU-145 4.01 µM | A498 11.4 µM | KM12 2.43 µM | UACC-62 3.89 µM | EKVX 4.26 µM | SF-268 23 µM | SNB-19 4.82 µM | TK-10 10.3 µM | IGROV-1 1.25 µM | SK-MEL-5 5.01 µM | SK-MEL-28 29.7 µM | T47D 12.7 µM | Malme-3M 5.93 µM | SK-OV-3 1.82 µM | MDA-MB-435 5.21 µM | M14 2.77 µM | BT-549 13.1 µM | SN12C 1.65 µM | HOP-92 15.2 µM | SNB-75 5.86 µM | HCC 2998 1.41 µM | OVCAR-5 1.32 µM | NCI-H226 1.51 µM | OVCAR-3 2.09 µM | MDA-N 3.82 µM | OVCAR-4 4.11 µM | SK-MEL-2 22.6 µM | NCI/ADR-RES 3.12 µM | U-251 3.04 µM | NCI-H23 2.26 µM | HCT-116 1.93 µM
active: CCRF-CEM 0.217 µM | MCF7 0.438 µM | SF-295 1.1 µM | ACHN 0.381 µM | LOX IMVI 0.685 µM | SF-539 1.12 µM | SW-620 0.6 µM | Hs-578T 0.748 µM | 786-0 0.547 µM | A549 0.178 µM | CAKI-1 0.344 µM | HT-29 0.444 µM | HL-60 0.071 µM | HOP-62 0.491 µM | MOLT-4 0.231 µM

Cc1cccc(C)c1NC(=O)C(=O)CC(=O)c1sc(Nc2c(C)cccc2C)nc1C
inactive: PC-3 > 100 µM | UACC-257 > 100 µM | CCRF-CEM > 100 µM | MCF7 > 100 µM | SF-295 > 100 µM | RXF 393 61.1 µM | ACHN > 100 µM | COLO 205 > 100 µM | UO-31 50.8 µM | NCI-H522 > 100 µM | OVCAR-8 > 100 µM | RPMI-8226 > 100 µM | K562 > 100 µM | MDA-MB-231 > 100 µM | LOX IMVI > 100 µM | SF-539 > 100 µM | SW-620 > 100 µM | Hs-578T > 100 µM | 786-0 > 100 µM | DU-145 > 100 µM | A498 86.7 µM | KM12 > 100 µM | NCI-H460 > 100 µM | UACC-62 > 100 µM | EKVX > 100 µM | A549 > 100 µM | SF-268 > 100 µM | SNB-19 > 100 µM | TK-10 > 100 µM | IGROV-1 > 100 µM | CAKI-1 > 100 µM | HT-29 > 100 µM | T47D > 100 µM | SK-OV-3 > 100 µM | MDA-MB-435 > 100 µM | M14 > 100 µM | BT-549 > 100 µM | SN12C > 100 µM | HOP-92 > 100 µM | SNB-75 22.7 µM | HL-60 25.5 µM | HCC 2998 > 100 µM | OVCAR-5 > 100 µM | NCI-H226 > 100 µM | OVCAR-3 > 100 µM | HOP-62 > 100 µM | MOLT-4 > 100 µM | MDA-N > 100 µM | OVCAR-4 > 100 µM | SK-MEL-2 > 100 µM | NCI/ADR-RES > 100 µM | U-251 > 100 µM | NCI-H23 > 100 µM | HCT-116 > 100 µM
> 100 µM: HCT-15
